Experimental data published in patent publication US9676870B2, “Methods of treating atherosclerosis and aneurysm” (The Brigham and Women's Hospital, Inc., priority 2011, dated 2017).
“Also recorded” adds a separate entry of the source. Residues, ends and D or L forms follow the SMILES beside them. *: point of attachment. Cbz = O=C(OCc1ccccc1)*; CH2F = FC*

Key:
Assay type in all cases: cell-based
[1] = system: mouse peritoneal macrophages; assay: Mouse peritoneal macrophage IL6 / MCP-1 production (ELISA, real-time PCR)
Method: (§1) Human macrophages were prepared by differentiating Ficoll gradient-separated monocytes from human blood in RPMI with 10% human serum (Gemini Bio-Products, West Sacramento, Calif.) for 10 days on Falcon PRIMARIA™ tissue culture dishes (Becton Dickinson Labware, Franklin Lakes, N.J.) without coating. Mouse thioglycolate (3%, Sigma, St. Louis, Mo.)-stimulated peritoneal macrophages were prepared from WT C57BL/6 mice (Jackson Laboratory), Fcer1a^−/− mice (congenic C57BL/6, N>8) (21), Tlr2^−/− mice (Jackson Laboratory, N16), and […] (Jackson Laboratory, C57BL/6, N8). Cells were cultured in RPMI-1640 with 10% fetal bovine serum (FBS). Human aortic SMCs and ECs were obtained from human donor aortas and subcultured at passages 2-5 in DMEM containing 10% FBS (for SMCs), or in medium 199 containing 20% FBS (for ECs).
(§2) To detect cytokine production, cells were starved in corresponding media containing 0.5% FBS overnight, then incubated for 2 days in starvation media containing IgE (50 μg/mL for macrophages; 100 μg/mL for SMCs and ECs). Mouse poorly cytokinergic monomeric IgE H1 DNP-ε-206 (50 μg/mL) (34) and highly cytokinergic aggregated IgE SPE-7 (50 μg/mL) (Sigma) with or without LPS (100 ng/mL), ox-LDL (50 μg/mL), or DNP-HSA (10 ng/mL) were used to stimulate mouse macrophages. Human IgE was obtained from Immunology Consultants Laboratory, Inc. (Newberg, Oreg., RA-80E). […]

human macrophages [2] = assay: IgE-induced human macrophage IL6 secretion; details: human macrophages from most donors; IgE 50 μg/mL
Method: as §1, §2

[3] = system: mouse peritoneal macrophages; assay: Mouse peritoneal macrophage apoptosis / cell death (TUNEL, MTT); details: 50-100 μM EIPA, 50 μg/mL mouse IgE (SPE-7)
Method: as §1
(§3) To detect IgE-induced apoptosis, human and mouse macrophages and HuSMC were cultured on 8-well chamber slides, 96-well plates, or 6-well plate pre-coated with 1% gelatin. […]

human macrophages [4] = assay: IgE-induced human macrophage medium pH reduction
Method: as §1, §3

[5] = system: human monocyte-derived macrophages; assay: Human monocyte-derived macrophage apoptosis (TUNEL staining)
Method: as §1, §3

human macrophages [6] = assay: IgE-induced human macrophage cell death (MTT assay); details: human macrophages from most donors, IgE 50 μg/mL
Method: as §1, §3

HuECs = assay: Cultured human EC (HuEC) stimulation: immunoblot, cell death; details: IFN-γ 20 ng/mL, 50 μg lysate
Method: as §1, §2

HuSMCs = assay: Cultured human aortic SMC (HuSMC) stimulation: immunoblot, cytokines, cell death; details: IFN-γ 20 ng/mL, 50 μg lysate
Method: as §1, §2

Molecule: CCN(c1nc(N)c(C(=O)NC(=N)N)nc1Cl)C(C)C [EIPA, ethylisopropylamiloride]
- blocking of IgE-induced macrophage secretion of IL6 ([1]; 50-100 μM EIPA, 50 μg/mL mouse IgE (SPE-7)): blocked significantly
- blocking of IgE-induced IL6 secretion (human macrophages [2]): significantly blocked
- blocking of IgE-induced macrophage apoptosis [3]: blocked significantly
- blocking of IgE-induced medium color change and pH reduction (human macrophages [4]; 10 μM EIPA, IgE 50 μg/mL): completely blocked
- pH change by EIPA treatment alone (human macrophages [4]; EIPA alone, no IgE): did not change pH
- cell death caused by EIPA alone ([5]; 10 μM EIPA, same condition as LPS, 2-3 days, data not shown): did not cause any cell death
- blocking of IgE-induced cell death (human macrophages [6]): significantly blocked

Molecule: COC(=O)C[C@H](NC(=O)[C@H](C)NC(=O)[C@@H](NC(=O)OCc1ccccc1)C(C)C)C(=O)CF [ZVAD-FMK] (Cbz-Val-Ala-Asp(OMe)-CH2F)
- blocking of IgE-induced human macrophage apoptosis ([5]; ZVAD-FMK 20 μM, IgE 50 μg/mL): blocked; also recorded: efficiently blocks

Molecule: dinitrophenyl-human serum albumin [DNP-HSA]
- impact of antigen on SPE-7 or H1 DNP-ε-206 in macrophage activity assays ([1]; 10 ng/mL DNP-HSA, pH, cell death and IL6 assays): no significant impact

B1: IFN-γ: inflammatory cytokine (protein, UniProt P01579 24-161, looked up)
Interferon gamma: QDPYVKEAENLKKYFNAGHSDVADNGTLFLGILKNWKEESDRKIMQSQIVSFYFKLFKNFKDDQSIQKSVETIKEDMNVKFFNSNKKKRDDFEKLTNYSVTDLNVQRKAIHELIQVMAELSPAAKTGKRKRSQMLFRG
- FcεR1α expression in ECs (HuECs): induced FcεR1α expression
- FcεR1α expression in SMCs (HuSMCs): induced FcεR1α expression
